Patent publication US9533983B2, “Antiplatelet agent” (Mitsubishi Tanabe Pharma Corporation, priority 2009, dated 2017)

Experiments:
Type in all cases: cell-based
Conditions in all cases: Cavia porcellus, guinea pig PRP
[1] = tested on: Collagen-Induced Platelet Aggregation; assay: Platelet aggregation inhibitory activity: collagen-induced platelet aggregation in platelet rich plasma
Procedure, shortened: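 Guinea-pig citrated platelet-rich plasma incubated with compound 1 min at 37° C, stirred 1 min, then aggregation induced with collagen and measured by light transmittance, platelet-poor plasma set as 100%. Aggregation rates at each concentration gave the IC50.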

[2] = tested on: Ristocetin-Induced Platelet Aggregation; assay: Platelet aggregation inhibitory activity: ristocetin-induced platelet aggregation in platelet rich plasma
Procedure, shortened: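 Guinea pig citrated platelet-rich plasma preincubated with compound at 37 °C for 1 min, stirred 1 min, then aggregation induced with ristocetin. Light transmittance measured with PPP set as 100%. IC50 derived from aggregation rates across compound concentrations.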

[3] = tested on: ADP-Induced Platelet Aggregation; assay: Platelet aggregation inhibitory activity: ADP-induced platelet aggregation in platelet rich plasma
Procedure: A blood of a guinea pig was sampled by using a 1/10 volume of a 3.8% sodium citrate as a platelet aggregation inhibitor, and a platelet rich plasma (PRP) was separated by centrifuging the blood sample at 1100 rpm for 10 min. After fractionating the PRP in the upper layer, the lower layer was centrifuged at 3000 rpm for 10 min to fractionate the platelet poor plasma (PPP). To 100 μL of PRP, a 1 μL solution of each compound was added, and after still standing at 37° C. for 1 min, the mixture was stirred at 37° C. for 1 min by a stirrer. Then, 11 μL of collagen, ristocetin, or ADP was added thereto to induce the platelet aggregation. The platelet aggregation ability was measured by using the mCM hematolaser 313M (L-M-S Inc.). Based on the assumption that a light transmittance of PPP corresponds to a 100% coagulation value, an aggregation rate at each concentration of the compound was determined, then, an IC50 value was calculated therefrom.
[Platelet Aggregation Inhibitory Activities: ADP-Induced Platelet Aggregation]

| IC50 [1] | IC50 [2] | IC50 [3] | SMILES |
| --- | --- | --- | --- |
| 54 nM | 41 nM | > 10000 nM | COc1ccc(-n2c(-c3ccn(C)n3)nc3cc(C(F)(F)F)ccc32)nn1 [Example 52, 1-(6-methoxypyridazin-3-yl)-2-(1-methyl-1H-pyrazol-3-yl)-5-(trifluoromethyl)-1H-benzimidazole] |
| 17 nM | 27 nM | > 10000 nM | COc1ccc(-n2c(-c3ccc(F)cn3)nc3cc(C(F)(F)F)ccc32)nn1 [Example 62, 2-(5-fluoropyridin-2-yl)-1-(6-methoxypyridazin-3-yl)-5-(trifluoromethyl)-1H-benzimidazole] |
| 78 nM | 43 nM | > 10000 nM | COc1ccc(-n2c(-c3ccc(F)cn3)nc3cc(OC(F)(F)F)ccc32)nn1 [Example 71, 2-(5-fluoropyridin-2-yl)-1-(6-methoxypyridazin-3-yl)-5-(trifluoromethoxy)-1H-benzimidazole] |
| 120 nM | 80 nM | > 10000 nM | COc1ccc(-n2c(-c3cocn3)nc3cc(C(F)(F)F)ccc32)nn1 [Example 88, 1-(6-methoxypyridazin-3-yl)-2-(1,3-oxazol-4-yl)-5-(trifluoromethyl)-1H-benzimidazole] |
| 26 nM | 13 nM | > 10000 nM | COc1ccc(-n2c(-c3ccccn3)nc3cc(OC(F)(F)F)cnc32)cn1 [Example 147, 3-(6-methoxypyridin-3-yl)-2-pyridin-2-yl-6-(trifluoromethoxy)-3H-imidazo[4,5-b]pyridine] |
| 163 nM | 163 nM | > 10000 nM | COc1ccc(-n2c(-c3cn(C)nn3)nc3cc(C(F)(F)F)cnc32)cn1 [Example 160, 3-(6-methoxypyridin-3-yl)-2-(1-methyl-1H-1,2,3-triazol-4-yl)-6-(trifluoromethyl)-3H-imidazo[4,5-b]pyridine] |
| 157 nM | 135 nM | > 10000 nM | COc1ccc(-n2c(-c3cn(C)nn3)nc3cc(OC(F)(F)F)ccc32)nn1 [Example 167, 1-(6-methoxypyridazin-3-yl)-2-(1-methyl-1H-1,2,3-triazol-4-yl)-5-(trifluoromethoxy)-1H-benzimidazole] |
| 123 nM | 148 nM | > 10000 nM | COc1cnc(-n2c(-c3cn(C)cn3)nc3cc(C(F)(F)F)cnc32)cn1 [Example 169, 3-(5-methoxypyrazine-2-yl)-2-(1-methyl-1H-imidazol-4-yl)-6-(trifluoromethyl)-3H-imidazo[4,5-b]pyridine] |
| 21 nM | 11 nM | > 10000 nM | COc1ccc(-n2c(-c3ccc(F)cn3)nc3cc(OC(F)(F)F)cnc32)cn1 [Example 177, 2-(5-fluoropyridin-2-yl)-3-(6-methoxypyridin-3-yl)-6-(trifluoromethoxy)-3H-imidazo[4,5-b]pyridine] |
| 94 nM | 47 nM | > 10000 nM | COc1ccc(-n2c(-c3ccc(F)cn3)nc3cc(OC(F)F)cnc32)cn1 [Example 178] |
| 75 nM | 34 nM | > 10000 nM | COc1ccc(-c2c(-c3ccccn3)nc3cc(C(F)(F)F)cnn23)cn1 [Example 179, 3-(6-methoxypyridin-3-yl)-2-pyridin-2-yl-7-(trifluoromethyl)imidazo[1,2-b]pyridazine] |
| 55 nM | 14 nM | > 10000 nM | COc1ccc(-c2c(-c3ccccn3)nn3cc(C(F)(F)F)cnc23)cn1 [Example 180, 3-(6-methoxypyridin-3-yl)-2-pyridin-2-yl-6-(trifluoromethyl)pyrazolo[1,5-a]pyrimidine] |
| 33 nM | 27 nM | > 10000 nM | COc1ccc(-c2c(-c3ccc(F)cn3)nc3cc(C(F)(F)F)cnn23)cn1 [Example 181, 2-(5-fluoropyridin-2-yl)-3-(6-methoxypyridin-3-yl)-7-(trifluoromethyl)imidazo[1,2-b]pyridazine] |
| 24 nM | 9 nM | > 10000 nM | COc1ccc(-n2c(-c3ccccn3)cc3cc(C(F)(F)F)cnc32)cn1 [Example 183, 1-(6-methoxypyridin-3-yl)-2-pyridin-2-yl-5-(trifluoromethyl)-1H-pyrrolo[2,3-b]pyridine] |
| 16 nM | 9 nM | > 10000 nM | COc1ccc(-c2c3ncc(C(F)(F)F)cc3nn2-c2ccccn2)cn1 [Example 186, 3-(6-methoxypyridin-3-yl)-2-pyridin-2-yl-6-(trifluoromethyl)-2H-pyrazolo[4,3-b]pyridine] |
| 60 nM | 27 nM | > 10000 nM | COc1ccc(-c2c(-c3ccc(F)cn3)nn3cc(C(F)(F)F)cnc23)cn1 [Example 192, 2-(5-fluoropyridin-2-yl)-3-(6-methoxypyridin-3-yl)-6-(trifluoromethyl)pyrazolo[1,5-a]pyrimidine] |
